Consider one molecule from article PMC9866905, “Dehydroeburicoic Acid, a Dual Inhibitor against Oxidative Stress in Alcoholic Liver Disease” (Pharmaceuticals, 2022).

In one assay the target is T1, GSK3β (Homo sapiens, UniProt P49841).
T1 construct: gene GSK3B
The experiment in a line: ADP-Glo luminescent kinase assay, dose-response; supported by CETSA in LO2 lysate (ΔTm ca. […] °C). The assay is classed as biochemical.

The target in the next assay is Keap1 (Homo sapiens, UniProt Q14145). In words: fluorescence polarization competition with labeled Nrf2 (ETGE) peptide, dose-response; supported by CETSA in LO2 lysate (ΔTm ca. […] °C). It is filed as binding. The note with it: read-out: EC50 (the source's name).

Usually EC50 stands for the concentration at which the effect is half-maximal. A lower EC50 goes with higher potency in that assay.

Sequence of Keap1 (Q14145 whole entry): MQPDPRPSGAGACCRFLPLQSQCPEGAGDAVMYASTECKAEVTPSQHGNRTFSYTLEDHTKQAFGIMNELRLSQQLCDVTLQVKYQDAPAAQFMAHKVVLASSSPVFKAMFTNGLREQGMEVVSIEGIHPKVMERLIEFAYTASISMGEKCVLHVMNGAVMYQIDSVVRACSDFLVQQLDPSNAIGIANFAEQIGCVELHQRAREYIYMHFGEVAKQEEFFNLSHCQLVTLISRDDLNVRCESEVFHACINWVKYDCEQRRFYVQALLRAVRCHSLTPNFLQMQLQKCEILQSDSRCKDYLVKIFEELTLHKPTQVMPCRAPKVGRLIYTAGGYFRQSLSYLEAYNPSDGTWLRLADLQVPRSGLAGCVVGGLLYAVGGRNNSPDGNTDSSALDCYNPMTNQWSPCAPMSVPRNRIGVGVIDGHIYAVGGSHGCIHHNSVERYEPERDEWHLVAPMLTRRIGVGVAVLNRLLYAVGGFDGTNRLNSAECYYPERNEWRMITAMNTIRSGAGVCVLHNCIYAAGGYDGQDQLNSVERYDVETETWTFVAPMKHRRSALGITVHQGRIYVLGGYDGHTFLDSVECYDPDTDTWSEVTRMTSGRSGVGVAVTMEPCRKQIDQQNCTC
T1 sequence (P49841 whole entry): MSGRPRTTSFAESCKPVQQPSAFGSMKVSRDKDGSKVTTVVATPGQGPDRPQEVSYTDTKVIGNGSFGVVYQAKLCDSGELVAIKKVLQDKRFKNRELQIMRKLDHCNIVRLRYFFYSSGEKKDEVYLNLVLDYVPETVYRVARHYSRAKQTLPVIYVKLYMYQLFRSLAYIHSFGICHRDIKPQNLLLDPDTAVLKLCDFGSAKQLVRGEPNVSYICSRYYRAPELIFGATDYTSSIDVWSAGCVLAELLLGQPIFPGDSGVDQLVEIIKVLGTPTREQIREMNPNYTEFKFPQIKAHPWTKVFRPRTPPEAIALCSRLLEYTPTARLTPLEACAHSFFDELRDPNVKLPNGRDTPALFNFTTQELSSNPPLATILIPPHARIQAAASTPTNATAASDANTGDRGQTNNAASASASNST

On to `C=C(CC[C@@H](C(=O)O)[C@H]1CC[C@@]2(C)C3=CC[C@H]4C(C)(C)[C@@H](O)CC[C@]4(C)C3=CC[C@]12C)C(C)C` [compound 1, Dehydroeburicoic acid], for which the half-maximal effective concentration (EC50) at GSK3β came out at 8 ± 0.7 µM. In addition, at Keap1, the IC50 stood at 14.1 ± 0.1 µM.
